Laboratory results as given in US11351151B2, “Compound having anticancer activity and preparation method and application” (3D Medicines (Beijing) Co., Ltd., priority 2016, dated 2022).

How the values were obtained:
Assay in all cases: Cell proliferation assay (Alamar Blue)
Assay type in all cases: cell-based
SNU398 = conditions: Homo sapiens, SNU-398, 144 h; SNU398 liver cancer cell line; 6 days
How it was run: (§1)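 The compounds were tested over nine concentrations diluted 3.16-fold from a top dose of 30 or 100 μM, added 4 h after seeding log-phase cells at 500–1×10^4 per well. Plates were incubated for 6 days, then AlamarBlue fluorescence was read and IC50 values obtained by nonlinear regression.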

CCRF-CEM = conditions: Homo sapiens, 144 h; CCRF-CEM tumor cell line; 6 days
How it was run: as §1

NCl-H716 = conditions: 144 h; NCl-H716 tumor cell line; 6 days
How it was run: as §1

SNU354 = conditions: Homo sapiens, SNU-354, 144 h; SNU354 liver cancer cell line; 6 days
How it was run: as §1

HLF = conditions: 144 h; HLF liver cancer cell line; 6 days
How it was run: as §1

Hep3B2.1-7 = conditions: 144 h; Hep3B2.1-7 liver cancer cell line; 6 days
How it was run: as §1

HuTu80 = conditions: Homo sapiens, 144 h; HuTu80 tumor cell line; 6 days
How it was run: as §1

JHH2 = conditions: JHH-2, 144 h; JHH2 liver cancer cell line; 6 days
How it was run: as §1

JHH5 = conditions: 144 h; JHH5 liver cancer cell line; 6 days
How it was run: as §1

TE-6 = conditions: Homo sapiens, 144 h; TE-6 tumor cell line; 6 days
How it was run: as §1

AN3CA = conditions: for IC50: Homo sapiens, AN3-CA, 144 h, AN3CA (endometrial cells), 6 days
How it was run: as §1

SK-HEP-1 = conditions: Homo sapiens, SK-HEP1, 144 h; SK-HEP-1 liver cancer cell line; 6 days
How it was run: as §1

SNU449 = conditions: Homo sapiens, SNU-449, 144 h; SNU449 liver cancer cell line; 6 days
How it was run: as §1

T.T = conditions: Homo sapiens, TT, 144 h; T.T tumor cell line; 6 days
How it was run: as §1

MFM-223 = conditions: Homo sapiens, 144 h; MFM-223 tumor cell line; 6 days
How it was run: as §1

MDA-MB-231 = conditions: Homo sapiens, 144 h; MDA-MB-231 tumor cell line; 6 days
How it was run: as §1

SNU886 = conditions: SNU-886, 144 h; SNU886 liver cancer cell line; 6 days
How it was run: as §1

NCl-H661 = conditions: 144 h; NCl-H661 tumor cell line; 6 days
How it was run: as §1

MDA-MB-435S = conditions: Homo sapiens, 144 h; MDA-MB-435S tumor cell line; 6 days
How it was run: as §1

SNU475 = conditions: Homo sapiens, SNU-475, 144 h; SNU475 liver cancer cell line; 6 days
How it was run: as §1

NCl-H2170 = conditions: 144 h; NCl-H2170 tumor cell line; 6 days
How it was run: as §1

NCl-H526 = conditions: 144 h; NCl-H526 tumor cell line; 6 days
How it was run: as §1

JHH1 = conditions: 144 h; JHH1 liver cancer cell line; 6 days
How it was run: as §1

Row | SMILES | IC50 (SNU398) [µM] | IC50 (CCRF-CEM) [µM] | IC50 (NCl-H716) [µM] | IC50 (SNU354) [µM] | IC50 (HLF) [µM] | IC50 (Hep3B2.1-7) [µM] | IC50 (HuTu80) [µM] | IC50 (JHH2) [µM] | IC50 (JHH5) [µM] | IC50 (TE-6) [µM] | IC50 (AN3CA) [µM] | IC50 (SK-HEP-1) [µM] | IC50 (SNU449) [µM] | IC50 (T.T) [µM] | IC50 (MFM-223) [µM] | IC50 (MDA-MB-231) [µM] | IC50 (SNU886) [µM] | IC50 (NCl-H661) [µM] | IC50 (MDA-MB-435S) [µM] | IC50 (SNU475) [µM] | further results
1 | Cc1ccc(F)c(NC(=O)Nc2ccc(-c3cccc4c3c(N)nn4C(=O)CCCCCNC(=O)C[C@H](N)C(=O)N[C@@H](CCC(=O)N[C@@H](CCC(=O)N[C@@H](CCC(=O)N[C@@H](CCC(=O)O)C(=O)O)C(=O)O)C(=O)O)C(=O)O)cc2)c1 [Compound 5] | > 100 | 70.3 | 66.7 | > 100 | 63.9 | 76.5 | 48.4 | > 100 | > 100 | > 100 | 45.6 | 85.1 | > 100 | > 100 | 48.3 | > 100 | > 100 | > 100 | > 100 | > 100 | IC50 (NCl-H2170): > 100 µM; IC50 (NCl-H526): > 100 µM; IC50 (JHH1): > 100 µM
2 | Cc1ccc(F)c(NC(=O)Nc2ccc(-c3cccc4c3c(N)nn4C(=O)CCCCCNC(=O)C[C@H](N)C(=O)O)cc2)c1 [Compound 11] | 79 | 40.7 | 82.2 | 63.3 | 49.4 | 50.4 | 23.1 | 93.5 | 87.7 | > 100 | 20.2 | 55.4 | > 100 | > 100 | 26.5 | 80.4 | > 100 | > 100 | 87.6 | 76.1 | IC50 (NCl-H2170): 72.8 µM; IC50 (NCl-H526): 92.4 µM; IC50 (JHH1): > 100 µM
3 | Cc1ccc(F)c(NC(=O)Nc2ccc(-c3cccc4c3c(N)nn4C(=O)CCCCCCCCCCCNC(=O)C[C@H](N)C(=O)N[C@@H](CCC(=O)N[C@@H](CCC(=O)N[C@@H](CCC(=O)N[C@@H](CCC(=O)O)C(=O)O)C(=O)O)C(=O)O)C(=O)O)cc2)c1 [Compound 8] | 50.1 | > 100 | 26.9 | 40.6 | 44.6 | 36.2 | 43.8 | > 100 | 48.6 | > 100 | 3.14 | > 100 | 60.3 | > 100 | 24 | 53.5 | 61 | > 100 | 38.5 | 57.5 | difference of IC50 value versus Linifanib (AN3CA; AN3-CA (endometrial cells)): 16.7 times; IC50 (NCl-H2170): 51.9 µM; IC50 (NCl-H526): 100 µM; IC50 (JHH1): 35.4 µM
4 | Cc1ccc(F)c(NC(=O)Nc2ccc(-c3cccc4c3c(N)nn4C(=O)CCCCCNC(=O)C[C@H](N)C(=O)N[C@@H](CCC(=O)O)C(=O)O)cc2)c1 [Compound 4] | 96.5 | 51.7 | 43.8 | 78.8 | 52.6 | 69.8 | 38.2 | > 100 | > 100 | > 100 | 28.7 | 64 | > 100 | > 100 | 38 | 96.5 | 96.2 | 99.5 | 98.8 | 81.3 | IC50 (NCl-H2170): 84 µM; IC50 (NCl-H526): > 100 µM; IC50 (JHH1): > 100 µM
